Reference: patent US7122307B2, “High throughput biological heart rate monitor that is molecularly determined” (The Trustees of Columbia University in the City of New York, priority 2001, dated 2006)

Tests used:
[1] = system: HCN2 over-expressing cell culture; assay: Spontaneous rate (action potential recording) of AdHCN2 infected culture during drug superfusion; type: cell-based, rat; conditions: for spontaneous rate during drug exposure: AdHCN2 infected culture, same culture during superfusion with drug, control records: 48 (isoproterenol), 54 (carbachol), 96 (ZD-7288) beats/min; for effect on heart rate of the culture (in words): HCN2 over-expressing cell culture
Description: Adult rats were anesthetized with ketamine-xylazine before cardiectomy, and neonatal rats decapitated, in accordance with the Institutional Animal Care and Use Committee protocols of Columbia University. For preparing cell cultures of newborn ventricles, a standard trypsin dissociation method was employed (21). The cells were preplated to reduce fibroblast proliferation, cultured initially in serum-containing medium (except when being transfected with plasmids as described below) and then switched to a serum free medium (SFM) after 24 hours. Action potential studies were conducted on 4 day old monolayer cultures plated directly onto fibronectin coated 9×22 mm glass coverslips. For voltage clamp experiments, 4–6 day old monolayer cultures were resuspended by brief (2–3 min) exposure to 0.25% trypsin, then the cells replated onto fibronectin-coated coverslips and studied within 2–8 hours.
For adult rat ventricular myocytes, AdHCN2 infection was carried out 2–3 hours after the isolated cells were plated onto coverslips. For neonatal cells, the infection was done on the monolayer culture 1–3 days after plating. In either case, the culture medium was removed from the dishes (35-mm) and the inoculum of 0.2–0.3 ml/dish was added containing AdHCN2. The value of m.o.i. (multiplicity of infection—the ratio of viral units to cells) was 15–100. The inoculum was dispersed over the cells every 20 min by gently “tilting” the dishes so that the cells were evenly exposed to the viral particles. The dishes were kept at 37° C. in a CO2 incubator during the adsorption period of two hours, then the inoculum was discarded and the dishes were washed and refilled with the appropriate culture medium. The dishes remained in the incubator for 24–48 hours before electrophysiological experiments were conducted. In some experiments, an adenoviral construct for GFP (AdGFP) was employed.
The whole-cell voltage clamp technique was employed to record native If or expressed IHCN2 or IHCN4. Action potentials were recorded in current clamp mode, again using a whole cell patch electrode/Experiments were carried out on cells supervised at 35° C. Extracellular solution contained (mmol/L): NaCl, 140; NaOH, 2.3; MgCl2, 1; KCl, 5.4; CaCl2, 1.0; HEPES, 5; glucose, 10; pH 7.4. To record from myocytes expressing native currents (If) myocytes expressing HCN2 (IHCN2) or HCN4 (IHCN4), [K^+]0 was increased to 10 mmol/L, and MnCl2 (2 mmol/L) and BaCl2 (4 mmol/L) added to the superfusate to eliminate calcium and inward rectifier (IK1) currents. In some experiments CsCl (4 mmol/L) was used extracellularly to identify the pacemaker current as the Cs-sensitive current. The patch pipette solution included (mmol/L): aspartic acid, 130; KOH, 146; NaCl, 10; CaCl2, 2; EGTA-KOH, 5; Mg-ATP, 2; HEPES-KOH, 10, pH 7.2. Where indicated, 10 μmol/L cAMP was included in the pipette solution. A fast solution changing apparatus expedited the experimental protocols. The pipette resistance was typically […]. An Axopatch-200B amplifier and pClampS software (Axon Instruments) were used for acquisition and data analysis. The pacemaker current (If, IHCN2 or IHCN4) was defined as the time-dependent component taken at the end of a hyperpolarizing step to voltages in the range of −35 to −145 mV, while the holding potential was −35 mV unless otherwise indicated. For If and IHCN2 measurements, the hyperpolarizing test pulses were 3 or 6 sec long throughout the voltage range. To accurately record steady-state currents for the more slowly activating IHCN4, the test voltages varied in length from 6 sec at −125 mV to as long as 60 sec at −55 mV. When recording tail currents, the test pulses were followed by an 8-sec voltage step to −125 mV. In all pacemaker current protocols, each episode ended with a pulse to −5 mV for 0.5 sec to insure full deactivation.
The normal cardiac pacemaker beats independently but is regulated by neurotransmitters released from sympathetic and parasympathetic neurons. […]

expressed HCN2 current = target: T1, expressed HCN2 current (Mus musculus, UniProt O88703); assay: Whole-cell voltage clamp: shift of the activation relation of expressed HCN2 current in ventricular myocytes; type: cell-based; conditions: for shift of the voltage dependence of HCN2: saturating cAMP (10 μmol/L) in the pipette
T1 construct: expressed in transfected cells; host or cells: neonatal and adult rat ventricular myocytes in primary culture, infected with adenovirus AdHCN2 (or lipofectin-transfected with pCI-mHCN2)
T1 sequence (O88703 1-863): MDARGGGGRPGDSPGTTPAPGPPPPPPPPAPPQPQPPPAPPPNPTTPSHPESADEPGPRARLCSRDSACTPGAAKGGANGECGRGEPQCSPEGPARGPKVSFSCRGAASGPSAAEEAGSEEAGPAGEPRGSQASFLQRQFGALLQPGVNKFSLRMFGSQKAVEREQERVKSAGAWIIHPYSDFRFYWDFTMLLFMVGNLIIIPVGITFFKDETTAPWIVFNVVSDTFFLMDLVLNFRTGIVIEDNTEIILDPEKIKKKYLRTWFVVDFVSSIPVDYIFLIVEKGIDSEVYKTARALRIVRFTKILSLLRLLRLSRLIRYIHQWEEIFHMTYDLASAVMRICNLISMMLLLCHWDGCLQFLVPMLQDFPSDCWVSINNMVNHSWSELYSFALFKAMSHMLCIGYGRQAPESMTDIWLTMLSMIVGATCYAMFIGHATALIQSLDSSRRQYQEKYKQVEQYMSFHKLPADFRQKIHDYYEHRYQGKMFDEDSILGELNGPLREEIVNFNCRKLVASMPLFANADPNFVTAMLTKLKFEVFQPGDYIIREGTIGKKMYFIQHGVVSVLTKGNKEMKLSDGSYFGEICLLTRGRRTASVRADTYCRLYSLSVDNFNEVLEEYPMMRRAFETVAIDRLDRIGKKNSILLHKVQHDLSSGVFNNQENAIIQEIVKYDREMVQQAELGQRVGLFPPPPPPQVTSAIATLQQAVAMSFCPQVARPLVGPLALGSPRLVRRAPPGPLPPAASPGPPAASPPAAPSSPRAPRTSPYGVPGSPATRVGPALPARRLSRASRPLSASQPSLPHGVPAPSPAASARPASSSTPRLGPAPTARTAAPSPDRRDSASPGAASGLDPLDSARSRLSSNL
Description: The whole-cell voltage clamp technique was employed to record native If or expressed IHCN2 or IHCN4. Action potentials were recorded in current clamp mode, again using a whole cell patch electrode/Experiments were carried out on cells supervised at 35° C. Extracellular solution contained (mmol/L): NaCl, 140; NaOH, 2.3; MgCl2, 1; KCl, 5.4; CaCl2, 1.0; HEPES, 5; glucose, 10; pH 7.4. […] In some experiments CsCl (4 mmol/L) was used extracellularly to identify the pacemaker current as the Cs-sensitive current. […] Where indicated, 10 μmol/L cAMP was included in the pipette solution. A fast solution changing apparatus expedited the experimental protocols. The pipette resistance was typically 1–3 M. An Axopatch-200B amplifier and pClampS software (Axon Instruments) were used for acquisition and data analysis. […] For If and IHCN2 measurements, the hyperpolarizing test pulses were 3 or 6 sec long throughout the voltage range. […] In all pacemaker current protocols, each episode ended with a pulse to −5 mV for 0.5 sec to insure full deactivation.
The activation relation of the native or expressed current can be determined from the steady-state I-V relation.

native pacemaker current = conditions: sinus node; cited from earlier work

Row | positive shift of the activation curve of expressed HCN2 current (expressed HCN2 current; threshold concentration of isoproterenol, neonatal ventricular myocyte, two-step voltage protocol, one cell) | Compound | spontaneous rate during drug exposure [1] [beats/min] | effect on heart rate of the culture (in words) [1] | threshold concentration on native pacemaker current (native pacemaker current) | shift of the voltage dependence of HCN2 (expressed HCN2 current; adult myocytes infected with AdHCN2) [mV] | shift of the voltage dependence of HCN2 (expressed HCN2 current; neonate myocytes infected with AdHCN2) [mV]
1 |  | C[N+](C)(C)CCOC(N)=O [carbachol] | 45 | decrease in heart rate |  |  | 
2 |  | CCN(c1ccccc1)c1cc(=NC)n(C)c(C)n1.Cl [ZD-7288] | 78 | slows the rate |  |  | 
3 | approximately 5 mV | CC(C)NCC(O)c1ccc(O)c(O)c1 (stereo not shown) [isoproterenol] | 63 | increase in heart rate | approximately 1 nM |  | 
4 |  | Nc1ncnc2c1ncn2[C@@H]1O[C@@H]2COP(=O)(O)O[C@H]2[C@H]1O [cAMP, cyclic adenosine monophosphate] |  |  |  | 14 | 17
